# System: NIH/3T3 cells
# Assay: Cell death protective effect in fibroblasts against Erastin, glutamate and RSL3 (LDH)
# Assay type: cell-based, mouse
# Settings: NIH/3T3, Erastin 3 μM, compound 0.1 μM, 24 hours
# Procedure: (§1) In order to identify the protective effect on fibroblasts, NIH/3T3 cells were divided into 96-well plates by 8×10^3 and cultured for 18 to 24 hours. The compounds of Examples were diluted to final concentrations of 0.1 and 1 μM, treated in each well, and incubated for 15 to 20 minutes. Erastin, glutamate, and RSL3 were treated to have final concentrations of 3 μM, 30 mM, and 3 μM, respectively, and cultured for 24 hours. In order to identify the protective effect of each compound, the degree of LDH extracellular secretion was measured using cytotoxicity LDH assay kit [Dojindo; CK12]. Briefly, at the time when the treatment of the cells with Erastin, glutamate, and RSL3 for 24 hours is completed, the supernatants containing the cells are taken by 70 μL and transferred to a new 96-well plate. The assay buffer included in the kit is added in an amount of 70 μL/well (the same amount as the sample) thereto, and then the plate is wrapped with a foil and the reaction is performed at room temperature for 15 minutes. After observing the changed color of the sample, the stop solution was added in an amount of 35 μL/well thereto, and then the 00 inhibition value was calculated by measuring the absorbance value at a wavelength of 490 nm using an iD3 spectrophotometer.
row,Structure (SMILES),inhibition (%)
1,"COCCOCc1cc(NC2CCOCC2)c2[nH]cc(C)c2c1 [Example 50, 5-(2-methoxyethoxymethyl)-3-methyl-N-tetrahydropyran-4-yl-1H-indol-7-amine]",0

# Same assay, conditions: NIH/3T3, Erastin 3 μM, compound 1.0 μM, 24 hours
row,Structure (SMILES),inhibition (%)
1,"COCCOCc1cc(NC2CCOCC2)c2[nH]cc(C)c2c1 [Example 50, 5-(2-methoxyethoxymethyl)-3-methyl-N-tetrahydropyran-4-yl-1H-indol-7-amine]",8

# Same assay, conditions: NIH/3T3, Glutamate 30 mM, compound 0.1 μM, 24 hours
row,Structure (SMILES),inhibition (%)
1,"COCCOCc1cc(NC2CCOCC2)c2[nH]cc(C)c2c1 [Example 50, 5-(2-methoxyethoxymethyl)-3-methyl-N-tetrahydropyran-4-yl-1H-indol-7-amine]",99

# Same assay, conditions: NIH/3T3, Glutamate 30 mM, compound 1.0 μM, 24 hours
row,Structure (SMILES),inhibition (%)
1,"COCCOCc1cc(NC2CCOCC2)c2[nH]cc(C)c2c1 [Example 50, 5-(2-methoxyethoxymethyl)-3-methyl-N-tetrahydropyran-4-yl-1H-indol-7-amine]",100

# Same assay, conditions: NIH/3T3, RSL3 3 μM, compound 0.1 μM, 24 hours
row,Structure (SMILES),inhibition (%)
1,"COCCOCc1cc(NC2CCOCC2)c2[nH]cc(C)c2c1 [Example 50, 5-(2-methoxyethoxymethyl)-3-methyl-N-tetrahydropyran-4-yl-1H-indol-7-amine]",100

# Same assay, conditions: NIH/3T3, RSL3 3 μM, compound 1.0 μM, 24 hours
row,Structure (SMILES),inhibition (%)
1,"COCCOCc1cc(NC2CCOCC2)c2[nH]cc(C)c2c1 [Example 50, 5-(2-methoxyethoxymethyl)-3-methyl-N-tetrahydropyran-4-yl-1H-indol-7-amine]",100

# System: PC-12 cells
# Assay: Cell death protective effect in adrenal cells against Erastin, glutamate and RSL3 (LDH)
# Assay type: cell-based, rat
# Settings: PC-12, Erastin 1 μM, compound 0.1 μM, 24 hours
# Procedure: In order to identify the protective effect on adrenal cells, PC-12 cells were divided into 96-well plates by 1×10^4 and cultured for 18 to 24 hours. The compounds of Examples were diluted to final concentrations of 0.1 and 1.0 μM in Erastin, 0.01 and 0.1 in glutamate, and 0.3 and 3.0 μM in RSL3, treated in each well, and incubated for 15 to 20 minutes. Erastin, glutamate, and RSL3 were treated to have final concentrations of 1 μM, 10 mM, and 0.3 μM, respectively, and cultured for 24 hours. In order to identify the protective effect of each compound, the degree of LDH extracellular secretion was measured using cytotoxicity LDH assay kit [Dojindo; CK12]. Briefly, at the time when the treatment of the cells with Erastin, glutamate, and RSL3 for 24 hours is completed, the supernatants containing the cells are taken by 70 μL and transferred to a new 96-well plate. The assay buffer included in the kit is added in an amount of 70 μL/well (the same amount as the sample) thereto, and then the plate is wrapped with a foil and the reaction is performed at room temperature for 15 minutes. After observing the changed color of the sample, the stop solution was added in an amount of 35 µL/well thereto, and then the 0 inhibition value was calculated by measuring the absorbance value at a wavelength of 490 nm using an iD3 spectrophotometer.
row,Structure (SMILES),inhibition (%)
1,"COCCOCc1cc(NC2CCOCC2)c2[nH]cc(C)c2c1 [Example 50, 5-(2-methoxyethoxymethyl)-3-methyl-N-tetrahydropyran-4-yl-1H-indol-7-amine]",41

# Same assay, conditions: PC-12, Erastin 1 μM, compound 1.0 μM, 24 hours
row,Structure (SMILES),inhibition (%)
1,"COCCOCc1cc(NC2CCOCC2)c2[nH]cc(C)c2c1 [Example 50, 5-(2-methoxyethoxymethyl)-3-methyl-N-tetrahydropyran-4-yl-1H-indol-7-amine]",68

# Same assay, conditions: PC-12, Glutamate 10 mM, compound 0.01 μM, 24 hours
row,Structure (SMILES),inhibition (%)
1,"COCCOCc1cc(NC2CCOCC2)c2[nH]cc(C)c2c1 [Example 50, 5-(2-methoxyethoxymethyl)-3-methyl-N-tetrahydropyran-4-yl-1H-indol-7-amine]",16

# Same assay, conditions: PC-12, Glutamate 10 mM, compound 0.1 μM, 24 hours
row,Structure (SMILES),inhibition (%)
1,"COCCOCc1cc(NC2CCOCC2)c2[nH]cc(C)c2c1 [Example 50, 5-(2-methoxyethoxymethyl)-3-methyl-N-tetrahydropyran-4-yl-1H-indol-7-amine]",25

# Same assay, conditions: PC-12, RSL3 0.3 μM, compound 0.3 μM, 24 hours
row,Structure (SMILES),inhibition (%)
1,"COCCOCc1cc(NC2CCOCC2)c2[nH]cc(C)c2c1 [Example 50, 5-(2-methoxyethoxymethyl)-3-methyl-N-tetrahydropyran-4-yl-1H-indol-7-amine]",0

# Same assay, conditions: PC-12, RSL3 0.3 μM, compound 3.0 μM, 24 hours
row,Structure (SMILES),inhibition (%)
1,"COCCOCc1cc(NC2CCOCC2)c2[nH]cc(C)c2c1 [Example 50, 5-(2-methoxyethoxymethyl)-3-methyl-N-tetrahydropyran-4-yl-1H-indol-7-amine]",100

# System: H9C2 cells
# Assay: Cell death protective effect in cardiac myocytes against Erastin, glutamate and RSL3 (LDH)
# Assay type: cell-based, rat
# Settings: H9C2, Erastin 1 μM, compound 0.1 μM, 24 hours
# Procedure: as §1, with “on cardiac cells, H9C2” for “on fibroblasts, NIH/3T3”, “by 1×10^4” for “by 8×10^3”, “of 1” for “of 3”, “μM, 25” for “μM, 30”, “and 0.5” for “and 3”, “minutes.” for “minutes. After observing the changed color of the sample, the stop solution was added in an amount of 35 μL/well thereto, and then the 00 inhibition value was calculated by measuring the absorbance value at a wavelength of 490 nm using an iD3 spectrophotometer.”
row,Structure (SMILES),inhibition (%)
1,"COCCOCc1cc(NC2CCOCC2)c2[nH]cc(C)c2c1 [Example 50, 5-(2-methoxyethoxymethyl)-3-methyl-N-tetrahydropyran-4-yl-1H-indol-7-amine]",16

# Same assay, conditions: H9C2, Erastin 1 μM, compound 1.0 μM, 24 hours
row,Structure (SMILES),inhibition (%)
1,"COCCOCc1cc(NC2CCOCC2)c2[nH]cc(C)c2c1 [Example 50, 5-(2-methoxyethoxymethyl)-3-methyl-N-tetrahydropyran-4-yl-1H-indol-7-amine]",18

# Same assay, conditions: H9C2, Glutamate 25 mM, compound 0.1 μM, 24 hours
row,Structure (SMILES),inhibition (%)
1,"COCCOCc1cc(NC2CCOCC2)c2[nH]cc(C)c2c1 [Example 50, 5-(2-methoxyethoxymethyl)-3-methyl-N-tetrahydropyran-4-yl-1H-indol-7-amine]",0

# Same assay, conditions: H9C2, Glutamate 25 mM, compound 1.0 μM, 24 hours
row,Structure (SMILES),inhibition (%)
1,"COCCOCc1cc(NC2CCOCC2)c2[nH]cc(C)c2c1 [Example 50, 5-(2-methoxyethoxymethyl)-3-methyl-N-tetrahydropyran-4-yl-1H-indol-7-amine]",49

# Same assay, conditions: H9C2, RSL3 0.5 μM, compound 0.1 μM, 24 hours
row,Structure (SMILES),inhibition (%)
1,"COCCOCc1cc(NC2CCOCC2)c2[nH]cc(C)c2c1 [Example 50, 5-(2-methoxyethoxymethyl)-3-methyl-N-tetrahydropyran-4-yl-1H-indol-7-amine]",7

# Same assay, conditions: H9C2, RSL3 0.5 μM, compound 1.0 μM, 24 hours
row,Structure (SMILES),inhibition (%)
1,"COCCOCc1cc(NC2CCOCC2)c2[nH]cc(C)c2c1 [Example 50, 5-(2-methoxyethoxymethyl)-3-methyl-N-tetrahydropyran-4-yl-1H-indol-7-amine]",4

# System: NRK-49F cells
# Assay: Cell death protective effect in renal fibroblasts against Erastin, glutamate and RSL3 (LDH)
# Assay type: cell-based, rat
# Settings: Erastin 3 μM, compound 0.1 μM, 24 hours
# Procedure: In order to identify the protective effect on renal fibroblasts, NRK-49F cells were divided into 96-well plates by 1×10^4 and cultured for 18 to 24 hours. The compounds of Examples were diluted to final concentrations of 0.1 and 1 μM, treated in each well, and incubated for 15 to 20 minutes. Erastin, glutamate, and RSL3 were treated to have final concentrations of 3 μM, 75 mM, and 3 μM, respectively, and cultured for 24 hours. In order to identify the protective effect of each compound, the degree of LDH extracellular secretion was measured using cytotoxicity LDH assay kit [Dojindo; CK12]. Briefly, at the time when the treatment of the cells with Erastin, glutamate, and RSL3 for 24 hours is completed, the supernatants containing the cells are taken by 70 μl and transferred to a new 96-well plate. The assay buffer included in the kit is added in an amount of 70 μL/well (the same amount as the sample) thereto, and then the plate is wrapped with a foil and the reaction is performed at room temperature for 15 minutes.
row,Structure (SMILES),inhibition (%)
1,"COCCOCc1cc(NC2CCOCC2)c2[nH]cc(C)c2c1 [Example 50, 5-(2-methoxyethoxymethyl)-3-methyl-N-tetrahydropyran-4-yl-1H-indol-7-amine]",3

# Same assay, conditions: Erastin 3 μM, compound 1.0 μM, 24 hours
row,Structure (SMILES),inhibition (%)
1,"COCCOCc1cc(NC2CCOCC2)c2[nH]cc(C)c2c1 [Example 50, 5-(2-methoxyethoxymethyl)-3-methyl-N-tetrahydropyran-4-yl-1H-indol-7-amine]",99

# Same assay, conditions: Glutamate 75 mM, compound 0.1 μM, 24 hours
row,Structure (SMILES),inhibition (%)
1,"COCCOCc1cc(NC2CCOCC2)c2[nH]cc(C)c2c1 [Example 50, 5-(2-methoxyethoxymethyl)-3-methyl-N-tetrahydropyran-4-yl-1H-indol-7-amine]",4

# Same assay, conditions: Glutamate 75 mM, compound 1.0 μM, 24 hours
row,Structure (SMILES),inhibition (%)
1,"COCCOCc1cc(NC2CCOCC2)c2[nH]cc(C)c2c1 [Example 50, 5-(2-methoxyethoxymethyl)-3-methyl-N-tetrahydropyran-4-yl-1H-indol-7-amine]",73

# Same assay, conditions: RSL3 3 μM, compound 0.1 μM, 24 hours
row,Structure (SMILES),inhibition (%)
1,"COCCOCc1cc(NC2CCOCC2)c2[nH]cc(C)c2c1 [Example 50, 5-(2-methoxyethoxymethyl)-3-methyl-N-tetrahydropyran-4-yl-1H-indol-7-amine]",16

# Same assay, conditions: RSL3 3 μM, compound 1.0 μM, 24 hours
row,Structure (SMILES),inhibition (%)
1,"COCCOCc1cc(NC2CCOCC2)c2[nH]cc(C)c2c1 [Example 50, 5-(2-methoxyethoxymethyl)-3-methyl-N-tetrahydropyran-4-yl-1H-indol-7-amine]",18

# — patent US20250122155A1, “NOVEL INDOLE DERIVATIVE, PHARMACEUTICAL COMPOSITION COMPRISING SAME, AND USE THEREOF” (MITOIMMUNE THERAPEUTICS INC., priority 2021, published 2025)
